The values below come from patent publication US6673555B1, “Methods of using SCAP antagonists” (SmithKline Beecham Corporation, priority 1999, dated 2004).

One test addresses T1, full length hamster SCAP (Cricetulus griseus, UniProt P97260).
T1 construct: recombinant baculovirus encoding for full length hamster SCAP containing a T7 tag; expressed in transfected cells; host or cells: Sf-9 insect cells infected with recombinant baculovirus (pTen12 transfer vector)
T1 sequence (P97260 1-1276): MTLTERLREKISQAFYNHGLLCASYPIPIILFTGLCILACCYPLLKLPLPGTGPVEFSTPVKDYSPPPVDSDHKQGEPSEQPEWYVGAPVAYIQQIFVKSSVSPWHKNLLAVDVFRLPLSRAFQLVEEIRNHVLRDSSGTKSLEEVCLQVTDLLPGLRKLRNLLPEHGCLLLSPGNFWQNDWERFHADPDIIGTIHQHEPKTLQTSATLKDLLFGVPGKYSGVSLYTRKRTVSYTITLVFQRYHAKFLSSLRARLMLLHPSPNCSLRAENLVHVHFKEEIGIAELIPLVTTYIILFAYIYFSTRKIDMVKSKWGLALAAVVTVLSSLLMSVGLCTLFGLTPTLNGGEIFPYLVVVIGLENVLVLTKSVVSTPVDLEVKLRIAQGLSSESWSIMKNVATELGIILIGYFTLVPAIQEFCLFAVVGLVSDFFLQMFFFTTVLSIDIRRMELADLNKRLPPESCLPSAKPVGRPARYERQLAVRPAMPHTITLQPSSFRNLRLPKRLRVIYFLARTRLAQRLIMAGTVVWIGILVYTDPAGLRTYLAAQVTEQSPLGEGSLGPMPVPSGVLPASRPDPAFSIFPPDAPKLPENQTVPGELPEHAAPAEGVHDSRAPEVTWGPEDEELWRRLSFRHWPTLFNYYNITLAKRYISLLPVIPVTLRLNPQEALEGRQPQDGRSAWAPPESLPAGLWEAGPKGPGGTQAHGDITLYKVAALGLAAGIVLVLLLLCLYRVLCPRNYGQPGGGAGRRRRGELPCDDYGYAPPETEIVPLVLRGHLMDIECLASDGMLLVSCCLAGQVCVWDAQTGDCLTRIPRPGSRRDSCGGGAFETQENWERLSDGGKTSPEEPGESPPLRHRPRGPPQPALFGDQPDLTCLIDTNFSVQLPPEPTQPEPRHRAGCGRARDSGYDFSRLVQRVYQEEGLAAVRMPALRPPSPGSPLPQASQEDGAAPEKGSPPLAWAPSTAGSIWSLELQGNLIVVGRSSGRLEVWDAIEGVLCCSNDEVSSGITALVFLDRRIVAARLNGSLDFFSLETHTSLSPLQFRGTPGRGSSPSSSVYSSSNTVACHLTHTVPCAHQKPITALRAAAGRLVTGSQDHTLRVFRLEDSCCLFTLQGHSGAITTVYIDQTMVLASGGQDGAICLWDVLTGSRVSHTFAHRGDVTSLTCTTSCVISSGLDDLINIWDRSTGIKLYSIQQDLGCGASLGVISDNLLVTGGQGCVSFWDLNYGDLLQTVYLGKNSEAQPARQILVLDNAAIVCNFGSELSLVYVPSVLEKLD
As to the kind of experiment: Photo-affinity labelling / competition binding on full length SCAP in infected Sf-9 cells. How it is done: Hamster SCAP cDNA was cut from pTK-HSV-SCAP-T7 using BgIII and Xbal and re-cloned in pTen 12 transfer vector. Recombinant baculovirus clones were produced by Quantum Biotechnologies Inc. and screened by western blots using T7-tag antibodies on Sf-9 infected cells. Sf-9 cells were grown in CCM-3 medium at 28° C. and seeded at 8×10^6 cells per 75 cm^2 flask. Four hours later they were infected with 200×10^6 pfu of baculovirus and incubated 3 days before harvest. […]
Infected Sf-9 cells were harvested, washed in Dulbecco phosphate buffered saline and 2×10^5 cells were incubated with test compounds and the control (^14C radio-labeled Example 2 ) for 30 min at 28° C. in 24 well plates. […] The radioactivity was detected using a Phosporlmager screen (Molecular Dynamics).
Sf-9 insect cells were infected with recombinant baculovirus encoding for full length hamster SCAP containing a T7 tag (FIG. 1A). Total protein (10 μg) from control cells (lanes b, d) or infected cells (lanes a, c) were analyzed by SDS-PAGE and either stained using Coomassie blue (lanes a, b) or blotted on nitrocellulose membrane following immuno-detection with T7 tag monoclonal antibody (lanes c, d). […] The gel was dried and radioactivity detected using Phosphor Imager Screen.

Test [1] deals with T2, truncated form of SCAP corresponding to amino acid 2 to 473 (Cricetulus griseus, UniProt P97260).
T2 construct: a truncated form of SCAP corresponding to amino acid 2 to 473; expressed in transfected cells; host or cells: Sf-9 insect cells infected with recombinant baculovirus (Gateway pDest10 bacmid); membranes analysed
T2 sequence (P97260 2-473): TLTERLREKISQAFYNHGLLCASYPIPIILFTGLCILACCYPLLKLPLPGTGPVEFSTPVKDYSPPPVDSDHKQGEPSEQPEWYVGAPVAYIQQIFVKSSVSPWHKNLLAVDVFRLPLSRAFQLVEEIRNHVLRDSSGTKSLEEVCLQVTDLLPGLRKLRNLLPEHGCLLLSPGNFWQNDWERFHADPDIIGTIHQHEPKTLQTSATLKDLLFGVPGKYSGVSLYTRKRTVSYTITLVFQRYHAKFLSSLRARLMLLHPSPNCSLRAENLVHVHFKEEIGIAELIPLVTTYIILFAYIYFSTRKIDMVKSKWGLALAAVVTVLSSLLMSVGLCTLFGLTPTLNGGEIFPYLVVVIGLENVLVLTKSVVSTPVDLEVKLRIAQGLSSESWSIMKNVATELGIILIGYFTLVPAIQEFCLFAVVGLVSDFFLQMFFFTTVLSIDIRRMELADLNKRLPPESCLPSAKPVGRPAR
Nature of the test: Photo-affinity labelling / competition binding on truncated SCAP (amino acid 2 to 473) in Sf-9 cell membranes. On the set-up: species or system hamster. How it is done:
Hamster SCAP cDNA was cut from pTK-HSV-SCAP-T7 using BgIII and Xbal and re-cloned in pTen 12 transfer vector. Recombinant baculovirus clones were produced by Quantum Biotechnologies Inc. and screened by western blots using T7-tag antibodies on Sf-9 infected cells. Sf-9 cells were grown in CCM-3 medium at 28° C. and seeded at 8×10^6 cells per 75 cm^2 flask. Four hours later they were infected with 200×10^6 pfu of baculovirus and incubated 3 days before harvest. Truncated SCAP corresponding to amino acid 2 to 473 was produced by PCR amplification with Platinium Pfx polymerase using pTK-HSV-SCAP-T7 as template and primers containing attB1 sequence followed by SEQ ID NO: 1 […] and the complement strand of attB2 sequence followed by SEQ ID NO: 2 […]. After recombination into pDonR201 vector using the Gateway cloning system, the inserts were recloned into pDest10 vector using LR recombinase. The corresponding bacmids and recombinant baculovirus were produced according the manufacturer instructions.
A competition binding assay using recombinant SCAP protein was developed in Sf-9 insect cells. […]
Infected Sf-9 cells were harvested, washed in Dulbecco phosphate buffered saline and 2×10^5 cells were incubated with test compounds and the control (^14C radio-labeled Example 2 ) for 30 min at 28° C. in 24 well plates. […] The radioactivity was detected using a Phosporlmager screen (Molecular Dynamics). […]

In another test the test system is HepG2 cells. As to the kind of experiment: Uptake of Dil-LDL by HepG2 cells. It counts as cell-based. As to conditions: 10 μM, 24 hours, Dil-LDL 6 μg/ml for last 4 hours, FIG. 5. How it is done:
To determine if activation of LDL-receptor promoter also translated into an increase in functional LDL receptors, an LDL uptake assay was set up. HepG2 cells seeded at 8 10^4 cells per 8 well Biocoat slides (Beckton Dickinson) were treated with SCAP antagonist or 25OH-cholesterol for 20h and then incubated with 6 μg/ml of fluorescent Dil-LDL for 4 hours. The amount of fluorescent dye that accumulated in the lysosomes was quantified by fluorescence microscopy using Axioplan-2 Zeiss microscope equipped with DXC950P video camera (Sony) and red fluorescence filters.
HepG2 cells were treated for 24 hours in the presence of 0.5 μM Example 1 or 10 μM 25OH-cholesterol. Dil-LDL (6 μg/ml) were added 4 hours before the end of the incubation. Cells were washed and observed by fluorescence microscopy using rhodamine filters and video camera with fixed settings.

The test system of test [2] is human LDL-receptor promoter. As to the kind of experiment: LDL-receptor promoter luciferase reporter assay in transfected HepG2 cells. It counts as cell-based. The text has this:
The human LDL-receptor promoter named p-588 corresponding to nucleotide −588 to +91 relative to the major transcription site was cloned by PCR from human genomic DNA (Clonetech) using SEQ ID NO: 3 […] and SEQ ID NO: 4 […] primers. and inserted into pGL3-basic vector (Promega) at Hind-III and Nco-I sites. The sequencing was identical to published promoter (Genbank L29401). Shorter promoters were obtained by PCR sub-cloning using Kpn-I and Nar-I sites. The primer SEQ ID NO: 5 […] corresponding to luciferase coding sequence was used as reverse primer for all constructs. The following primers were used to produce respectively p-149, p-118, p-70, p-53 and p-31 promoters: SEQ ID NO: 6 […], SEQ ID NO: 7 […], SEQ ID NO: 8 […], SEQ ID NO: 9 […] and SEQ ID NO: 10 […]. A vector containing the 38 bp of the minimal promoter of adenovirus Major Late Promoter (Ham. J. et al., EMBO, 10: 2931-2940 (1991)) was produced using Bgl-II and Hind-III site in pGL3-basic. Four repeats of the SRE sequence present on the human LDL-receptor promoter were introduced in p-MLP vector using Bgl-II site, SEQ ID NO: 11 […] and complementary oligo. HepG2 cells seeded the previous day at 3 10^5 cells per well of 24 well plate were transfected with 1 μg of LDL-promoter containing vector together with p-RL-TK control vector (Promega) using Fugene 6 (Boehringer). HepG2 cells were incubated for 28 hours in the presence of SCAP antagonist and/or 25OH-cholesterol. Firefly luciferase and Renila activity were measured using Dual Luciferase Assay Kit (Promega) and Lumistar (BMG). The ratio of Firefly luciferase to Renila were used to calculate mean and S.D. of tetraplicates.
A vector containing the human LDL-receptor promoter coupled to Firefly luciferase reporter was made. A mixture of the LDL-receptor vector and control pRL-TK vector was used to transfect HepG2 cells. Cells were incubated with 25OH-cholesterol (0.2 or 1 μM) alone or in the presence (black bars) or absence (gray bars) of Example 1 (1 μM) for 28 hours before measurement of luciferase and renila activity. The ratio of luciferase activity versus renila activity was calculated and the mean and SD of triplicates were expressed as percent of control.
Shortening the LDL-receptor promoter in the same reporter vector modifies the relative luciferase activity (FIG. 3A).

For `CCOC1=CC2=C(CN(C)C)C[C@@H]3[C@H](C(O)C[C@@]4(C)[C@H]3CC[C@@]43OCOC34COCO4)[C@@]2(C)CC1` (stereo partly drawn) [Example 3, 3-Ethoxy-11-hydroxy-androst-3,5-diene-17α,17β-(1,3,6,8-tetraoxaspiro[4.4]nonan-4-yl)-6-methyldimethylamine], at full length hamster SCAP (100, 50, 20 μM test compound versus 5 μM 14C-Example 2, FIG. 1A), the “displacement of the 14C-Example 2 labelling of SCAP” value is listed as “displaced in a dose dependant manner”. Also, the “competition with 14C-Example 2 labelling of truncated SCAP” value in test [1] (200 μM or 100 μM test compound versus 5 μM 14C-Example 2, FIG. 1B) is “competitive”.
On to `COc1cc(C(C)C)ccc1C1CCN(CCCCNC(=O)c2ccc(C(=O)c3ccccc3)cc2)CC1.Cl` [Example 2, 4-(4-Benzoyl)-N-{4-[4-(4-isopropyl-2-methoxy-phenyl)-piperidin-1-yl]-butyl}-benzamide Hydrochloride], for which the “photo-affinity labelling of SCAP by the radio-labelled compound” value on full length hamster SCAP (5 μM 14C-Example 2, 30 min at 28° C., 365 nm UV 10 min, FIG. 1A) is “specifically labeled SCAP”. Also, in test [1] (5 μM 14C-Example 2, membranes, FIG. 1B), the “photo-affinity labelling of truncated SCAP by the radio-labelled compound” value was “can be labelled”.
With `C[C@H](CCCC(C)(C)O)[C@H]1CC[C@H]2[C@@H]3CC=C4C[C@@H](O)CC[C@]4(C)[C@H]3CC[C@]12C` [25OH-cholesterol, reference compound], the “LDL uptake (Dil-LDL fluorescence)” value in the test with HepG2 cells was “reduced it”. For the same molecule, the “LDL-receptor promoter activity (luciferase/renila ratio)” value in test [2] (0.2 or 1 μM, 28 hours, HepG2, FIG. 2) is on record as “represses LDL-receptor promoter activity”. For the same molecule, in test [2] (HepG2, FIG. 3B right), the “repression of shortened LDL-receptor promoter constructs” value was “two sequences are involved: SRE and FP-1”.
